Data: US10987349B2, “Antitumor agent and bromodomain inhibitor” (FUJIFILM Corporation, priority 2016, dated 2021)

Tests used:
BRD2 BD1 = molecular target: T1, BRD2 BD1 (Homo sapiens, UniProt P25440); assay: Binding assay, BRD2 BD1 to acetylated histone H4 Peptide-Biotin (EPIgeneous Binding Domain Kit A); conditions: for inhibition at 0.3 µM: test compound at 300 nmol/L, read-out: Binding inhibition percentage BRD2 BD1
T1 construct: BRD2 BD1, BRD3 BD1 and BRD4 BD1 (Cisbio); purchased Cisbio
Summary of the method: (§1)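 HTRF competition: bromodomain protein (added at 20 nmol/L) and biotinylated tetra-acetyl H4(1-25) peptide (added at 25 nmol/L) were incubated with compound, streptavidin-d2 and anti-GST Eu cryptate for 20 h at room temperature. Inhibition came from the 665/620 nm ratio relative to DMSO; IC50 by four-parameter fit; some compounds were tested only at 300 nmol/L final.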

BRD2 BD2 = molecular target: T2, BRD2 BD2 (Homo sapiens, UniProt P25440); assay: Binding assay, BRD2 BD2 to acetylated histone H4 Peptide-Biotin (EPIgeneous Binding Domain Kit B); conditions: for inhibition at 0.3 µM: test compound at 300 nmol/L, read-out: Binding inhibition percentage BRD2 BD2
T2 construct: BRD2 BD2, BRD3 BD2 and BRD4 BD2 (Cisbio); purchased Cisbio
T2 sequence (P25440 344-453 limits assumed): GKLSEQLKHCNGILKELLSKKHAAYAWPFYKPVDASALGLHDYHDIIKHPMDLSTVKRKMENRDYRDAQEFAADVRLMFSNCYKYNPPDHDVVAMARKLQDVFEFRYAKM
Summary of the method: (§2)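 HTRF binding of GST-tagged BD2 (20 nmol/L working stock) to biotinylated acetyl-histone H4 peptide (250 nmol/L working stock), using streptavidin-XL665 and anti-GST Eu cryptate. Incubated 20 h at room temperature; 665/620 nm ratio versus DMSO gives % inhibition; IC50 by four-parameter fit, or % inhibition at 300 nmol/L.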

BRD3 BD1 = molecular target: T3, BRD3 BD1 (Homo sapiens, UniProt Q15059); assay: Binding assay, BRD3 BD1 to acetylated histone H4 Peptide-Biotin (EPIgeneous Binding Domain Kit A); conditions: for inhibition at 0.3 µM: test compound at 300 nmol/L, read-out: Binding inhibition percentage BRD3 BD1
T3 construct: BRD2 BD1, BRD3 BD1 and BRD4 BD1 (Cisbio); purchased Cisbio
T3 sequence (Q15059 34-140 limits assumed): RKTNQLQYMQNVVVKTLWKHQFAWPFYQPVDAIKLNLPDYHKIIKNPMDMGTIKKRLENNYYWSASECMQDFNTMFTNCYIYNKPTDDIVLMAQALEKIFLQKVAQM
Summary of the method: as §1

BRD3 BD2 = molecular target: T4, BRD3 BD2 (Homo sapiens, UniProt Q15059); assay: Binding assay, BRD3 BD2 to acetylated histone H4 Peptide-Biotin (EPIgeneous Binding Domain Kit B); conditions: for inhibition at 0.3 µM: test compound at 300 nmol/L, read-out: Binding inhibition percentage BRD3 BD2
T4 construct: BRD2 BD2, BRD3 BD2 and BRD4 BD2 (Cisbio); purchased Cisbio
T4 sequence (Q15059 306-415 limits assumed): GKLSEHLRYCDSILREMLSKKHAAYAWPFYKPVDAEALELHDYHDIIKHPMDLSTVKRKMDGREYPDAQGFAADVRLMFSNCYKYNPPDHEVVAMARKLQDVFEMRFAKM
Summary of the method: as §2

BRD4 BD1 = molecular target: T5, BRD4 BD1 (Homo sapiens, UniProt O60885); assay: Binding assay, BRD4 BD1 to acetylated histone H4 Peptide-Biotin (EPIgeneous Binding Domain Kit A); conditions: for inhibition at 0.3 µM: test compound at 300 nmol/L, read-out: Binding inhibition percentage BRD4 BD1
T5 construct: BRD2 BD1, BRD3 BD1 and BRD4 BD1 (Cisbio); purchased Cisbio
Summary of the method: as §1

BRD4 BD2 = molecular target: T6, BRD4 BD2 (Homo sapiens, UniProt O60885); assay: Binding assay, BRD4 BD2 to acetylated histone H4 Peptide-Biotin (EPIgeneous Binding Domain Kit B); conditions: for inhibition at 0.3 µM: test compound at 300 nmol/L, read-out: Binding inhibition percentage BRD4 BD2
T6 construct: BRD2 BD2, BRD3 BD2 and BRD4 BD2 (Cisbio); purchased Cisbio
Summary of the method: as §2

[1] = tested on: human undifferentiated thymoma cell line Ty-82; assay: Cell growth test (Cell Titer Glo) Ty-82; assay type: cell-based; conditions: TY82, 3 to 5 days
From the text: (§3) The human undifferentiated thymoma cell line Ty-82 (JCRB), the human acute myeloid leukemia cell lines MV4-11 (ATCC), MOLM-13 (ATCC) and RS4-11 (ATCC), the human lymphoma cell line Raji (JCRB), the human cervical epidermoid carcinoma cell line Hela (JCRB), the human lung adenocarcinoma cell line A549 (ATCC), the human colon cancer cell lines DLD1 (DS Pharma) and HCT116 (DS Pharma), and the human pancreatic cancer cell line MIAPACA-2 (ATCC) were used to carry out a cell growth test.
(§4) Ty-82, MV4-11, MOLM-13, RS4-11, Raji and DLD1 were each seeded in a well plate, in which Roswell Park Memorial Institute (RPMI)-1640 medium supplemented with penicillin/streptomycin and fetal bovine serum (FBS) with a final concentration of 10% was placed. Hela was seeded in Dulbecco's Modified Eagle's medium (DMEM) supplemented with penicillin/streptomycin and FBS with a final concentration of 10%. A549 and MIAPACA-2 were each seeded in a well plate, in which Minimum Essential Medium (MEM) supplemented with penicillin/streptomycin and FBS with a final concentration of 10% was placed. HCT116 was seeded in a well plate, in which McCoy's 5A medium supplemented with penicillin/streptomycin and FBS with a final concentration of 10% was placed.
(§5) Thereafter, a medium containing a test compound serially diluted with DMSO, or DMSO, was added to each well of the plate, in which the cells had been seeded, and the obtained mixture was then cultured under conditions of 37° C. and 5% CO2 for 3 to 5 days. Cell Titer Glo reaction solution (Promega) was added to the culture, and the amount of luminescence was then measured using Envision plate reader (PerkinElmer). Since the amount of luminescence is in proportion to the concentration of adenosine triphosphate (ATP) in cells, the amount of luminescence was used as an indicator of the number of living cells. The growth inhibition percentage of the test compound in each concentration was calculated according to the following equation. Growth inhibition percentage (%)=(amount of luminescence in test compound−added well)/(amount of luminescence in DMSO−added well)×100
(§6) The growth inhibition percentage of the test compound in each concentration was plotted by performing a non-linear regression analysis [(log (inhibitor) vs. response—Variable slope (four parameters)], using Graphpad prism 5, and a 50% growth inhibitory concentration [GI50 (nmol/L)] was then calculated.

[2] = tested on: human acute myeloid leukemia cell line MV4-11; assay: Cell growth test (Cell Titer Glo) MV4-11; assay type: cell-based; conditions: 3 to 5 days
From the text: as §3, §4, §5, §6

[3] = tested on: human acute myeloid leukemia cell line MOLM-13; assay: Cell growth test (Cell Titer Glo) MOLM-13; assay type: cell-based; conditions: 3 to 5 days
From the text: as §3, §4, §5, §6

[4] = tested on: MV4-11 subcutaneously transplanted tumor; assay: Medicinal effect test, MV4-11-subcutaneously-transplanted cancer-bearing mouse models, oral administration; assay type: in vivo; conditions: orally, once per day, 14 days, BALB/c nu/nu mice
Procedure: The human acute myeloid leukemia cell line MV4-11 (ATCC) was suspended in a mixture of RPMI-1640 medium and Matrigel (Corning), and the obtained mixture was then subcutaneously transplanted into 6-week-old female BALB/c nu/nu mice (CLEA Japan, Inc.). After confirming that the average tumor volume exceeded 200 mm^3, a test compound was dissolved in a solvent (a 0.5% methyl cellulose aqueous solution or water containing 1 equivalent of hydrochloric acid), and the obtained solution was then orally administered to the mice at a daily dose of 10 to 30 mg/kg, once per day, for 14 days. As a negative control, a solvent administration group involving administration of a 0.5% methyl cellulose aqueous solution was established. The tumor diameter was measured on a daily basis, and the tumor volume was calculated. The tumor volume was calculated by measuring the major axis and minor axis of the tumor and then applying the following equation. Tumor volume (mm^3)=[major axis (mm)×minor axis (mm)×minor axis (mm)]/2
T/C (%) was calculated from the average tumor volume of each group according to the following equation, and medicinal effects were then evaluated. T/C(%)=[1−(average tumor volume of drug administration group)/(average tumor volume of solvent administration group)]×100%

T1 sequence (P25440 74-180 limits assumed): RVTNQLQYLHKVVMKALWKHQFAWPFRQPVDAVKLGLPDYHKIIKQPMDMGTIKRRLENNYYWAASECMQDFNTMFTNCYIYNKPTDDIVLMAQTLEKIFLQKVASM

inhibition at 0.3 µM (BRD2 BD1) [%] | inhibition at 0.3 µM (BRD2 BD2) [%] | inhibition at 0.3 µM (BRD3 BD1) [%] | inhibition at 0.3 µM (BRD3 BD2) [%] | inhibition at 0.3 µM (BRD4 BD1) [%] | inhibition at 0.3 µM (BRD4 BD2) [%] | GI50 [1] [nM] | GI50 [2] [nM] | GI50 [3] [nM] | IC50 (BRD2 BD1) [nM] | IC50 (BRD2 BD2) [nM] | IC50 (BRD3 BD1) [nM] | IC50 (BRD3 BD2) [nM] | IC50 (BRD4 BD1) [nM] | IC50 (BRD4 BD2) [nM] | Structure (SMILES) | T/C (%) ([4]; 10 mg/kg) | T/C (%) ([4]; 30 mg/kg)
94 | 79 | 94 | 83 | 94 | 83 | 23 | 22 | 44 | – | – | – | – | – | – | CCn1c(=O)cc(C2CCN(C)CC2)c2cc(C(=O)N3CCCc4ccccc43)ccc21 [Example 11, 6-(3,4-dihydroquinolin-1 (2H)-ylcarbonyl)-1-ethyl-4-(1-methylpiperidin-4-yl)quinolin-2(1H)-one] | – | –
34 | 82 | 55 | 90 | 67 | 84 | 17 | 16 | 43 | 144 | 18 | 91 | 12 | 40 | 7 | CCn1c(=O)cc(N2CCOCC2)c2cc(-n3c(-c4ccc(Cl)cc4)cn(C)c3=O)ccc21 [Example 246, 6-(5-(4-chlorophenyl)-3-methyl-2-oxo-2,3-dihydro-1H-imidazol-1-yl)-1-ethyl-4-(morpholin-4-yl)quinolin-2(1H)-one] | 13 | 33
83 | 90 | 93 | 91 | 94 | 89 | 11 | 16 | 43 | – | – | – | – | – | – | CCn1c(=O)cc(N2CCOCC2)c2cc(-n3c(-c4ccccc4)cn(C(C)C)c3=O)ccc21 [Example 247, 1-ethyl-4-(morpholin-4-yl)-6-(2-oxo-5-phenyl-3-(propan-2-yl)-2,3-dihydro-1H-imidazol-1-yl)quinolin-2(1H)-one] | – | 33
